{
  "source": "ChEMBL document CHEMBL1149239",
  "about": "“Synthesis and pharmacological evaluation of piperidinoalkanoyl-1,2,3,4-tetrahydroisoquinoline derivatives as novel specific bradycardic agents” (2004)",
  "data": [
    {"organism": "Cavia porcellus", "assay": "Concentration required to produce 30% reduction from the initial beat rates in isolated guinea pig right atria.", "type": "functional", "units": {"EC30": "nM"}, "values": [
      {"smiles": "COc1cc2c(cc1OC)CN(C(=O)CCN1CCC(COc3ccc4c(c3)OCO4)CC1)CC2", "EC30": 470},
      {"smiles": "COc1cc2c(cc1OC)CN(C(=O)CCN1CCC(CCCOc3ccc4c(c3)OCO4)CC1)CC2", "EC30": 620},
      {"smiles": "COc1cc2c(cc1OC)CN(C(=O)CCN1CCCC(COc3ccc4c(c3)OCO4)C1)CC2", "note": "(stereo not given)", "EC30": 170},
      {"smiles": "COc1cc2c(cc1OC)CN(C(=O)CN1CCCC(COc3ccc4c(c3)OCO4)C1)CC2", "note": "(stereo not given)", "EC30": 1170},
      {"smiles": "COc1cc2c(cc1OC)CN(C(=O)CCN1CCC(CCOc3ccc4c(c3)OCO4)CC1)CC2", "EC30": 450},
      {"smiles": "COc1cc2c(cc1OC)CN(C(=O)C1CCCN(CCCOc3ccc4c(c3)OCO4)C1)CC2", "note": "(stereo not given)", "EC30": 370},
      {"smiles": "COc1cc2c(cc1OC)CN(C(=O)CCN1CCCC(CCOc3ccc4c(c3)OCO4)C1)CC2", "note": "(stereo not given)", "EC30": 340},
      {"smiles": "COc1cc2c(cc1OC)CN(C(=O)CCN1CCC(Oc3ccc4c(c3)OCO4)CC1)CC2", "EC30": 440},
      {"smiles": "COc1cc2c(cc1OC)CN(C(=O)CCN1CCCC(Oc3ccc4c(c3)OCO4)C1)CC2", "note": "(stereo not given)", "EC30": 3030},
      {"smiles": "COc1cc2c(cc1OC)CN(C(=O)CCN1CCCC(CCCOc3ccc4c(c3)OCO4)C1)CC2", "note": "(stereo not given)", "EC30": 390},
      {"smiles": "COc1cc2c(cc1OC)CN(C(=O)CCCN1CCCC(COc3ccc4c(c3)OCO4)C1)CC2", "note": "(stereo not given)", "EC30": 850},
      {"smiles": "COc1ccc(CCN(C)CCCN2CCc3cc(OC)c(OC)cc3CC2=O)cc1OC", "note": "[ZATEBRADINE]", "EC30": 260}
    ]},
    {"system": "Rattus norvegicus", "assay": "Reduction of spontaneous sinus heart rate (HR) when […] in conscious rats; Reduced from -23.5 to -87.8 beats/min", "type": "functional", "units": {"Heart rate": "beats min-1"}, "values": [
      {"smiles": "COc1cc2c(cc1OC)CN(C(=O)CCN1CCC(Oc3ccc4c(c3)OCO4)CC1)CC2", "Heart rate": -87.8}
    ]},
    {"system": "Rattus norvegicus", "assay": "Reduction of spontaneous sinus heart rate (HR) when […] in conscious rats; Reduced from -5.28 to -20.0 beats/min", "type": "functional", "units": {"Heart rate": "beats min-1"}, "values": [
      {"smiles": "COc1cc2c(cc1OC)CN(C(=O)CCN1CCC(COc3ccc4c(c3)OCO4)CC1)CC2", "Heart rate": -20}
    ]},
    {"system": "Rattus norvegicus", "assay": "Reduction of mean blood pressure (MBP) when […] in conscious rats; Reduced from 2.12 to 2.0 mmHg", "type": "functional", "units": {"MBP": "mmHg"}, "values": [
      {"smiles": "COc1cc2c(cc1OC)CN(C(=O)CCN1CCC(Oc3ccc4c(c3)OCO4)CC1)CC2", "MBP": 2}
    ]}
  ]
}
